Counter-ions that a name gives are not always drawn.
target: human α7 nAChRs transiently expressed in Xenopus laevis oocytes (Homo sapiens (Human), UniProt P36544); assay: Oocyte electrophysiology screen (TEVC); type: cell-based; settings: 0.01 mM test compound, peak current relative to 0.2 mM ACh
In short: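 Oocytes expressing human α7 were clamped at −80 mV by TEVC. After a 0.2 mM ACh control pulse, test compound was applied at 0.01 mM for 30 s. Agonist response is peak current as % of the ACh response, in triplicate.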

Sequence of human α7 nAChRs transiently expressed in Xenopus laevis oocytes (P36544 23-502 limits assumed): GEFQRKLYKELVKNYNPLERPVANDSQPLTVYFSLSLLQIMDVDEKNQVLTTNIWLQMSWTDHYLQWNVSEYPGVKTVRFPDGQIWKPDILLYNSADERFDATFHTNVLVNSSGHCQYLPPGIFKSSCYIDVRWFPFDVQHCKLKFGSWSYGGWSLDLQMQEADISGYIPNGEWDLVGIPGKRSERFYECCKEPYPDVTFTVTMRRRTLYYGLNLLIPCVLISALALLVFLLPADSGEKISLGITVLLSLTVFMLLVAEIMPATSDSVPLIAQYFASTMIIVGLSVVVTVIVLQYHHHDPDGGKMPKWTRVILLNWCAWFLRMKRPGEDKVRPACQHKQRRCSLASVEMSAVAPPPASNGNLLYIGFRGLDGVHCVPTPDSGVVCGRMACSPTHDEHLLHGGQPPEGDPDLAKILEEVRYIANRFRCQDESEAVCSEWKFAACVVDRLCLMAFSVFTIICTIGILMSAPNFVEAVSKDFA

Row | Structure (SMILES) | % ACh @ 10 μM Oocyte
1 | CC1(C)[C@@H](NC(=O)c2cc3ccc(F)cc3s2)C2CCN1CC2 [(S)-8, (S)—N-(2,2-dimethylquinuclidin-3-yl)-6-fluorobenzo[b]thiophene-2-carboxamide hydrochloride] | 1 % ACh
2 | Cc1nc2ccc(C(=O)N[C@@H]3C4CCN(CC4)C3(C)C)cc2o1 [(R)-33, (R)—N-(2,2-dimethylquinuclidin-3-yl)-2-methylbenzo[d]oxazole-6-carboxamide] | 6 % ACh
3 | CC1(C)[C@H](NC(=O)c2nc3ccccc3s2)C2CCN1CC2 [(R)-29, (R)—N-(2,2-dimethylquinuclidin-3-yl)benzo[d]thiazole-2-carboxamide hydrochloride] | 448 % ACh
4 | O=C(NC1C2CCN(CC2)C12CC2)c1cc2cc(F)ccc2s1 (single isomer, unassigned; enantiomer2) [64b, 5-fluoro-N-(1′-azaspiro[cyclopropane-1,2′-bicyclo[2.2.2]octan]-3′-yl)benzo[b]thiophene-2-carboxamide-enantiomer2] | 1 % ACh
5 | CC(C)Oc1ccc2cc(C(=O)N[C@@H]3C4CCN(CC4)C3(C)C)sc2c1 [(R)-47, (R)—N-(2,2-dimethylquinuclidin-3-yl)-6-isopropoxybenzo[b]thiophene-2-carboxamide hydrochloride] | 1 % ACh
6 | Cc1cc2cc(C(=O)N[C@@H]3C4CCN(CC4)C3(C)C)ccc2o1 [(R)-38, (R)—N-(2,2-dimethylquinuclidin-3-yl)-2-methylbenzofuran-5-carboxamide hydrochloride] | 339 % ACh
7 | CC1(C)[C@H](NC(=O)c2cc3cccc(C#N)c3s2)C2CCN1CC2 [(R)-115, (R)-7-cyano-N-(2,2-dimethylquinuclidin-3-yl)benzo[b]thiophene-2-carboxamide hydrochloride] | 215 % ACh
8 | CC1(C)[C@@H](NC(=O)c2cc3cc(F)ccc3s2)C2CCN1CC2 [(S)-11, (S)—N-(2,2-dimethylquinuclidin-3-yl)-5-fluorobenzo[b]thiophene-2-carboxamide hydrochloride] | 9 % ACh
9 | Cc1csc2cc(C(=O)N[C@@H]3C4CCN(CC4)C3(C)C)ccc12 [(R)-25, (R)—N-(2,2-dimethylquinuclidin-3-yl)-3-methylbenzo[b]thiophene-6-carboxamide hydrochloride] | 7 % ACh
10 | Nc1ncc2cc(C(=O)N[C@@H]3C4CCN(CC4)C34CC4)sc2n1 [(R)-149, (R)-2-amino-N-(1′-azaspiro[cyclopropane-1,2′-bicyclo[2.2.2]octan]-3′-yl) thieno[2,3-d]pyrimidine-6-carboxamide hydrochloride] | 195 % ACh
11 | CC1(C)[C@H](NC(=O)c2cc3ccc(Cl)cc3o2)C2CCN1CC2.Cl [(R)-216, (R)-6-chloro-N-(2,2-dimethylquinuclidin-3-yl)benzofuran-2-carboxamide hydrochloride] | 184 % ACh
12 | CC1(C)[C@@H](NC(=O)c2cc3ccc(C4CC4)cc3s2)C2CCN1CC2 [(S)-18, (S)-6-cyclopropyl-N-(2,2-dimethylquinuclidin-3-yl)benzo[b]thiophene-2-carboxamide hydrochloride] | 1 % ACh
13 | CC1(C)[C@H](NC(=O)c2cc3ccc(-n4ccnn4)cc3s2)C2CCN1CC2.Cl [(R)-208, (R)-N-(2,2-dimethylquinuclidin-3-yl)-6-(1H-1,2,3-triazol-1-yl)benzo[b]thiophene-2-carboxamide hydrochloride] | 0 % ACh
14 | O=C(NC1C2CCN(CC2)C12CC2)c1cc2ccc(C(F)(F)F)cc2s1 (single isomer, unassigned; enantiomer1) [63a, N-(1′-azaspiro[cyclopropane-1,2′-bicyclo[2.2.2]octan]-3′-yl)-6-(trifluoromethyl)benzo[b]thiophene-2-carboxamide-enantiomer1] | 3 % ACh
15 | CC1(C)[C@H](NC(=O)c2cc3ccc(C4CC4)c(F)c3s2)C2CCN1CC2.Cl [(R)-213, (R)-6-cyclopropyl-N-(2,2-dimethylquinuclidin-3-yl)-7-fluorobenzo[b]thiophene-2-carboxamide hydrochloride] | 60 % ACh
16 | O=C(NC1C2CCN(CC2)C12CC2)c1ccc2occc2c1 (single isomer, unassigned; enantiomer2) [59b, N-(1′-azaspiro[cyclopropane-1,2′-bicyclo[2.2.2]octan]-3′-yl)benzofuran-5-carboxamide-enantiomer2] | 27 % ACh
17 | O=C(NC1C2CCN(CC2)C12CC2)c1cc2ccc(C(F)(F)F)cc2s1 (single isomer, unassigned; enantiomer2) [63b, N-(1′-azaspiro[cyclopropane-1,2′-bicyclo[2.2.2]octan]-3′-yl)-6-(trifluoromethyl)benzo[b]thiophene-2-carboxamide-enantiomer2] | 3 % ACh
18 | CC1(C)[C@H](NC(=O)c2cc3ccc(N)cc3s2)C2CCN1CC2 [(R)-49, (R)-6-amino-N-(2,2-dimethylquinuclidin-3-yl)benzo[b]thiophene-2-carboxamide hydrochloride] | 576 % ACh
19 | O=C(N[C@@H]1C2CCN(CC2)C12CC2)c1cc2cccnc2s1 [(R)-81, (R)—N-(1′-azaspiro[cyclopropane-1,2′-bicyclo[2.2.2]octan]-3′-yl)thieno[2,3-b]pyridine-2-carboxamide hydrochloride] | 449 % ACh
20 | Cc1nc2ccc(C(=O)N[C@@H]3C4CCN(CC4)C34CC4)cc2s1 [(R)-88, (R)-2-methyl-N-(1′-azaspiro[cyclopropane-1,2′-bicyclo[2.2.2]octan]-3′-yl)benzo[d]thiazole-6-carboxamide hydrochloride] | 133 % ACh
21 | CC1(C)[C@H](NC(=O)c2cc3ccc(N4CCOCC4)cc3s2)C2CCN1CC2 [(R)-44, (R)—N-(2,2-dimethylquinuclidin-3-yl)-6-morpholinobenzo[b]thiophene-2-carboxamide hydrochloride] | 1 % ACh
22 | O=C(N[C@H]1C2CCN(CC2)C12CC2)c1nc2ccccc2s1 [(S)-82, (S)—N-(1′-azaspiro[cyclopropane-1,2′-bicyclo[2.2.2]octan]-3′-yl)benzo[d]thiazole-2-carboxamide hydrochloride] | 2 % ACh
23 | CC1(C)[C@@H](NC(=O)c2cc3ccoc3cn2)C2CCN1CC2 [(S)-22, (S)—N-(2,2-dimethylquinuclidin-3-yl)furo[2,3-c]pyridine-5-carboxamide hydrochloride] | 25 % ACh
24 | CC(C)Oc1ccc2cc(C(=O)N[C@@H]3C4CCN(CC4)C34CC4)sc2c1 [(R)-102, (R)-6-isopropoxy-N-(1′-azaspiro[cyclopropane-1,2′-bicyclo[2.2.2]octan]-3′-yl)benzo[b]thiophene-2-carboxamide hydrochloride] | 1 % ACh
25 | CC1(C)[C@@H](NC(=O)c2cnn3ncccc23)C2CCN1CC2 [(S)-27, (S)—N-(2,2-dimethylquinuclidin-3-yl)pyrazolo[1,5-b]pyridazine-3-carboxamide hydrochloride] | 0 % ACh
26 | Cc1nc2cc(C(=O)N[C@@H]3C4CCN(CC4)C34CC4)ccc2s1 [(R)-87, (R)-2-methyl-N-(1′-azaspiro[cyclopropane-1,2′-bicyclo[2.2.2]octan]-3′-yl)benzo[d]thiazole-5-carboxamide hydrochloride] | 341 % ACh
27 | O=C(N[C@H]1C2CCN(CC2)C12CC2)c1cc2c(cn1)OCCO2 [(S)-76, (S)—N-(1′-azaspiro[cyclopropane-1,2′-bicyclo[2.2.2]octan]-3′-yl)-2,3-dihydro-[1,4]dioxino[2,3-c]pyridine-7-carboxamide hydrochloride] | 1 % ACh
28 | N#Cc1ccc2cc(C(=O)N[C@@H]3C4CCN(CC4)C34CC4)sc2c1 [(R)-104, (R)-6-cyano-N-(1′-azaspiro[cyclopropane-1,2′-bicyclo[2.2.2]octan]-3′-yl)benzo[b]thiophene-2-carboxamide hydrochloride] | 20 % ACh

same assay, conditions: 0.01 mM test compound, peak current relative to 0.2 mM ACh; hydrochloride

Row | Structure (SMILES) | % ACh @ 10 μM Oocyte
29 | O=C(NC1C2CCN(CC2)C12CC2)c1cc2cccc(F)c2s1 (single isomer, unassigned; enantiomer2) [57b, 7-fluoro-N-(1′-azaspiro[cyclopropane-1,2′-bicyclo[2.2.2]octan]-3′-yl)benzo[b]thiophene-2-carboxamide-enantiomer2 hydrochloride] | 4 % ACh
30 | O=C(NC1C2CCN(CC2)C12CC2)c1cc2cc(Cl)ccc2s1 (single isomer, unassigned; enantiomer1) [66b, 5-chloro-N-(1′-azaspiro[cyclopropane-1,2′-bicyclo[2.2.2]octan]-3′-yl)benzo[b]thiophene-2-carboxamide-enantiomer1 hydrochloride] | 29 % ACh
31 | COc1ccc2sc(C(=O)NC3C4CCN(CC4)C34CC4)cc2c1 (single isomer, unassigned; enantiomer1) [74a, 5-methoxy-N-(1′-azaspiro[cyclopropane-1,2′-bicyclo[2.2.2]octan]-3′-yl)benzo[b]thiophene-2-carboxamide-enantiomer1 hydrochloride] | 32 % ACh
32 | Nc1ccc2cc(C(=O)NC3C4CCN(CC4)C34CC4)sc2c1 (single isomer, unassigned; enantiomer2) [62b, 6-amino-N-(1′-azaspiro[cyclopropane-1,2′-bicyclo[2.2.2]octan]-3′-yl)benzo[b]thiophene-2-carboxamide-enantiomer2 hydrochloride] | 995 % ACh
33 | O=C(NC1C2CCN(CC2)C12CC2)c1cc2cc(C3CC3)ccc2s1 (single isomer, unassigned; enantiomer2) [72b, 5-cyclopropyl-N-(1′-azaspiro[cyclopropane-1,2′-bicyclo[2.2.2]octan]-3′-yl)benzo[b]thiophene-2-carboxamide-enantiomer2 hydrochloride] | 1 % ACh

— US10183938B2, “Geminal substituted quinuclidine amide compounds as agonists of α-7 nicotonic acetylcholine receptors” (AXOVANT SCIENCES GMBH, priority 2014, dated 2019)
